The test system of the test is protein (gelatin) layers of photographic film. Kind of test: Photographic film test: removal of gelatin protein layers by enzyme in heated water. It counts as biochemical. The conditions noted are these: 400 ppm additive, 160-170° F. An excerpt: Photographic film contains a layer of a binding agent that is a protein (gelatin) which is readily attacked and removed by protease under ambient conditions. The film has multiple colored layers of the gelatin binding agent which can serve as an indication of the degree of attack if exposed to suitable enzymes. Photographic film was used in experiments to show the ability of enzymes, proteases, to attach or remove the protein layer under various conditions.
In the experiments outlined in Table 1, a beaker was charged with 5 grain tap water. An activator, “Additive 1”, was added to the beaker with the water temperature adjusted to the temperature as shown in the “Temp (F) Additive 1” column. The solution was then adjusted for the film test to the temperature as shown in “Temp (F) Enzyme” and a protease enzyme and section of photographic film added. The solution was stirred for 5 minutes and the film recovered and wiped with a paper towel for visual examination.
The additive, enzyme and then the combination of protease enzyme and additives were heated to the temperatures indicated in the applicable columns to analyze the various conditions under which the protease enzyme was able to readily attack and removed the protein (gelatin) layers of the photographic film. […]

On to `O=C(O)[C@@H]1CCCN1` [proline], for which the “additive function as activator/stabilizer of enzymes at elevated temperatures” value is reported as “function to activate and/or stabilize enzymes”.
The entry for cocoamidyl propyl butane [CAPB] is “function to activate and/or stabilize enzymes”.
